Data published in patent publication US20220365099A1, “DERIVATIZATION OF BETA-LACTAM ANTIBIOTICS FOR MASSSPEC MEASUREMENTS IN PATIENT SAMPLES” (Roche Diagnostics Operations, Inc., priority 2019, published 2022).

Experiment: Stability in water at room temperature, LC-MS/MS peak areas over 16 h
Assay type: physicochemical
Conditions: 5 μg/ml in water, timepoints 0, 2, 4, 6, 8 and 16 h
Description: The stability of native Piperacillin as well as its hydrolyzed forms was investigated (compounds 5, 9a and 9b, respectively. From the hydrolyzation pathway of Piperacillin (see schematic drawing in FIG. 1) it is obvious that this compound hydrolyzed both on the piperazin ring and the lactam moiety, only one of both compounds is monitored to account for the loss of native Piperacillin). To this end, these compounds were freshly weighed and dissolved in water at a concentration of 1 mg/mL by rolling for 15 minutes at room temperature. Subsequently, these compounds were diluted to 5 μg/ml and measured with a suitable LC-MS/MS method at timepoints 0, 2, 4, 6, 8 and 16 h. […] The peaks were integrated using MultiQuant software and the areas of these peaks depicted in the graphs in FIGS. 2A and 2B.
The stability of double butylamide variants of Piperacillin (compound 7, see FIG. 4) was investigated at 2 MRMs using the identical protocol as in Examples 1.

obtained peak-areas over time: decreasing
SMILES: CCN1CCN(C(=O)N[C@@H](C(=O)N[C@@H]2C(=O)N3[C@@H]2SC(C)(C)[C@@H]3C(=O)O)c2ccccc2)C(=O)C1=O [Piperacillin]
